Measured values from patent publication US12077503B2, “Substituted cyclic amides and their use as herbicides” (FMC CORPORATION, priority 2015, dated 2024).

Tests used:
Assay type in all cases: in vivo
[1] = system: barnyardgrass (Echinochloa crus-galli); assay: Test G Post-Emergence Protocol; conditions: Echinochloa crus-galli, post-emergence, 312 h; for pest or weed control at 15.625 g/ha: 15.625 g ai/ha, evaluated after 13 days (100=total damage to plant; 0=no damage to plant), read-out: Barnyardgrass damage rating; for pest or weed control at 62.5 g/ha: 62.5 g ai/ha, read-out: Barnyardgrass damage rating (100=total damage to plant; 0=no damage to plant); for pest or weed control at 62.5 g/ha / pest or weed control at 250 g/ha: evaluated after 13 days; for pest or weed control at 250 g/ha: 250 g ai/ha, read-out: damage to plant, Barnyardgrass (100=total damage to plant; 0=no damage to plant)
Outline: (§1)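 Damage was rated 13 days after treatment from 0 (none) to 100 (plant killed). Compound was applied as a spray at 15.625, 62.5 or 250 g/ha in 50:50 acetone/water containing 0.5% Tween 20, onto 8-day-old potted plants kept in a glasshouse (24/16 °C, 14 h light, 65% humidity).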

[2] = system: giant foxtail (Setaria faberi); assay: Test G Post-Emergence Protocol; conditions: Setaria faberi, post-emergence, 312 h; for pest or weed control at 15.625 g/ha: 15.625 g ai/ha, evaluated after 13 days (100=total damage to plant; 0=no damage to plant), read-out: Foxtail, Giant damage rating; for pest or weed control at 62.5 g/ha: 62.5 g ai/ha, read-out: Foxtail, Giant damage rating (100=total damage to plant; 0=no damage to plant); for pest or weed control at 62.5 g/ha / pest or weed control at 250 g/ha: evaluated after 13 days; for pest or weed control at 250 g/ha: 250 g ai/ha, read-out: damage to plant, Foxtail, Giant (100=total damage to plant; 0=no damage to plant)
Outline: as §1

[3] = system: ivy-leaved morning glory (Ipomoea hederacea); assay: Test G Post-Emergence Protocol; conditions: Ipomoea, post-emergence, 312 h; for pest or weed control at 15.625 g/ha: 15.625 g ai/ha, evaluated after 13 days (100=total damage to plant; 0=no damage to plant), read-out: Morningglory, Ivy-leaved damage rating; for pest or weed control at 62.5 g/ha: 62.5 g ai/ha, read-out: Morningglory, Ivy-leaved damage rating (100=total damage to plant; 0=no damage to plant); for pest or weed control at 62.5 g/ha / pest or weed control at 250 g/ha: evaluated after 13 days; for pest or weed control at 250 g/ha: 250 g ai/ha, read-out: damage to plant, Morningglory, Ivy-leaved (100=total damage to plant; 0=no damage to plant)
Outline: as §1

[4] = system: velvetleaf (Abutilon theophrasti); assay: Test G Post-Emergence Protocol; conditions: Abutilon theophrasti, post-emergence, 312 h; for pest or weed control at 15.625 g/ha: 15.625 g ai/ha, evaluated after 13 days (100=total damage to plant; 0=no damage to plant), read-out: Velvetleaf damage rating; for pest or weed control at 62.5 g/ha: 62.5 g ai/ha, read-out: Velvetleaf damage rating (100=total damage to plant; 0=no damage to plant); for pest or weed control at 62.5 g/ha / pest or weed control at 250 g/ha: evaluated after 13 days; for pest or weed control at 250 g/ha: 250 g ai/ha, read-out: damage to plant, Velvetleaf (100=total damage to plant; 0=no damage to plant)
Outline: as §1

[5] = system: corn (Zea mays); assay: Test G Post-Emergence Protocol; conditions: Zea mays, post-emergence, 312 h; for plant injury at 15.625 g/ha: 15.625 g ai/ha, evaluated after 13 days (100=total damage to plant; 0=no damage to plant), read-out: Corn damage rating; for plant injury at 62.5 g/ha: 62.5 g ai/ha, read-out: Corn damage rating (100=total damage to plant; 0=no damage to plant); for plant injury at 62.5 g/ha / plant injury at 250 g/ha: evaluated after 13 days; for plant injury at 250 g/ha: 250 g ai/ha, read-out: damage to plant, Corn (100=total damage to plant; 0=no damage to plant)
Outline: as §1

[6] = system: redroot pigweed (Amaranthus retroflexus); assay: Test G Post-Emergence Protocol; conditions: Amaranthus retroflexus, post-emergence, 312 h; for pest or weed control at 15.625 g/ha: 15.625 g ai/ha, evaluated after 13 days (100=total damage to plant; 0=no damage to plant), read-out: Pigweed, Redroot damage rating; for pest or weed control at 62.5 g/ha: 62.5 g ai/ha, read-out: Pigweed, Redroot damage rating (100=total damage to plant; 0=no damage to plant); for pest or weed control at 62.5 g/ha / pest or weed control at 250 g/ha: evaluated after 13 days; for pest or weed control at 250 g/ha: 250 g ai/ha, read-out: damage to plant, Pigweed, Redroot (100=total damage to plant; 0=no damage to plant)
Outline: as §1

[7] = system: barnyardgrass (Echinochloa crus-galli); assay: Test G Pre-Emergence Protocol; conditions: Echinochloa crus-galli, pre-emergence, 312 h, evaluated after 13 days; for pest or weed control at 15.625 g/ha: 15.625 g ai/ha, read-out: Barnyard grass damage rating (100=total damage to plant; 0=no damage to plant); for pest or weed control at 62.5 g/ha: 62.5 g ai/ha, 100=total damage to plant, 0=no damage to plant, read-out: plant damage rating, Barnyardgrass; for pest or weed control at 250 g/ha: 250 g ai/ha, read-out: Barnyardgrass damage rating (100=total damage to plant; 0=no damage to plant)
Outline: (§2)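 Herbicidal effect was rated 13 days post-application on a scale where 100 equals total damage. Spraying took place the day after sowing, using 15.625, 62.5 or 250 g/ha of compound in a 50:50 acetone/water solution with 0.5% Tween 20.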

[8] = system: giant foxtail (Setaria faberi); assay: Test G Pre-Emergence Protocol; conditions: Setaria faberi, pre-emergence, 312 h, evaluated after 13 days; for pest or weed control at 15.625 g/ha: 15.625 g ai/ha; for pest or weed control at 15.625 g/ha / pest or weed control at 250 g/ha: read-out: Foxtail, Giant damage rating (100=total damage to plant; 0=no damage to plant); for pest or weed control at 62.5 g/ha: 62.5 g ai/ha, 100=total damage to plant, 0=no damage to plant, read-out: plant damage rating, Foxtail, Giant; for pest or weed control at 250 g/ha: 250 g ai/ha
Outline: as §2

[9] = system: ivy-leaved morning glory (Ipomoea hederacea); assay: Test G Pre-Emergence Protocol; conditions: Ipomoea, pre-emergence, 312 h, evaluated after 13 days; for pest or weed control at 15.625 g/ha: 15.625 g ai/ha, read-out: Morning-glory, Ivy-leaved damage rating (100=total damage to plant; 0=no damage to plant); for pest or weed control at 62.5 g/ha: 62.5 g ai/ha, 100=total damage to plant, 0=no damage to plant, read-out: plant damage rating, Morningglory, Ivy-leaved; for pest or weed control at 250 g/ha: 250 g ai/ha, read-out: Morningglory, Ivy-leaved damage rating (100=total damage to plant; 0=no damage to plant)
Outline: as §2

[10] = system: velvetleaf (Abutilon theophrasti); assay: Test G Pre-Emergence Protocol; conditions: Abutilon theophrasti, pre-emergence, 312 h, evaluated after 13 days; for pest or weed control at 15.625 g/ha: 15.625 g ai/ha; for pest or weed control at 15.625 g/ha / pest or weed control at 250 g/ha: read-out: Velvetleaf damage rating (100=total damage to plant; 0=no damage to plant); for pest or weed control at 62.5 g/ha: 62.5 g ai/ha, 100=total damage to plant, 0=no damage to plant, read-out: plant damage rating, Velvetleaf; for pest or weed control at 250 g/ha: 250 g ai/ha
Outline: as §2

[11] = system: corn (Zea mays); assay: Test G Pre-Emergence Protocol; conditions: Zea mays, pre-emergence, 312 h, evaluated after 13 days; for plant injury at 15.625 g/ha: 15.625 g ai/ha; for plant injury at 15.625 g/ha / plant injury at 250 g/ha: read-out: Corn damage rating (100=total damage to plant; 0=no damage to plant); for plant injury at 62.5 g/ha: 62.5 g ai/ha, 100=total damage to plant, 0=no damage to plant, read-out: plant damage rating, Corn; for plant injury at 250 g/ha: 250 g ai/ha
Outline: as §2

[12] = system: redroot pigweed (Amaranthus retroflexus); assay: Test G Pre-Emergence Protocol; conditions: Amaranthus retroflexus, pre-emergence, 312 h, evaluated after 13 days; for pest or weed control at 15.625 g/ha: 15.625 g ai/ha; for pest or weed control at 15.625 g/ha / pest or weed control at 250 g/ha: read-out: Pigweed, Redroot damage rating (100=total damage to plant; 0=no damage to plant); for pest or weed control at 62.5 g/ha: 62.5 g ai/ha, 100=total damage to plant, 0=no damage to plant, read-out: plant damage rating, Pigweed, Redroot; for pest or weed control at 250 g/ha: 250 g ai/ha
Outline: as §2

| Compound | pest or weed control at 15.625 g/ha [1] | pest or weed control at 62.5 g/ha [1] | pest or weed control at 250 g/ha [1] | pest or weed control at 15.625 g/ha [2] | pest or weed control at 62.5 g/ha [2] | pest or weed control at 250 g/ha [2] | pest or weed control at 15.625 g/ha [3] | pest or weed control at 62.5 g/ha [3] | pest or weed control at 250 g/ha [3] | pest or weed control at 15.625 g/ha [4] | pest or weed control at 62.5 g/ha [4] | pest or weed control at 250 g/ha [4] | plant injury at 15.625 g/ha [5] | plant injury at 62.5 g/ha [5] | plant injury at 250 g/ha [5] | pest or weed control at 15.625 g/ha [6] | pest or weed control at 62.5 g/ha [6] | pest or weed control at 250 g/ha [6] | pest or weed control at 15.625 g/ha [7] | pest or weed control at 62.5 g/ha [7] | further results |
| --- | --- | --- | --- | --- | --- | --- | --- | --- | --- | --- | --- | --- | --- | --- | --- | --- | --- | --- | --- | --- | --- |
| CN1C[C@@H](c2ccc(C(F)(F)F)cc2)[C@H](C(=O)Nc2cncc(Cl)n2)C1=O (racemic) [Compound 1574] | 0% | 0% | 40% | 0% | 0% | 60% | 0% | 0% | 40% | 0% | 0% | 0% | 0% | 0% | 0% | 0% | 0% | 0% | 0% | 0% | pest or weed control at 250 g/ha [7]: 60%; pest or weed control at 15.625 g/ha [8]: 0%; pest or weed control at 62.5 g/ha [8]: 0%; pest or weed control at 250 g/ha [8]: 70%; pest or weed control at 15.625 g/ha [9]: 0%; pest or weed control at 62.5 g/ha [9]: 0%; pest or weed control at 250 g/ha [9]: 0%; pest or weed control at 15.625 g/ha [10]: 0%; pest or weed control at 62.5 g/ha [10]: 0%; pest or weed control at 250 g/ha [10]: 0%; plant injury at 15.625 g/ha [11]: 0%; plant injury at 62.5 g/ha [11]: 0%; plant injury at 250 g/ha [11]: 0%; pest or weed control at 15.625 g/ha [12]: 0%; pest or weed control at 62.5 g/ha [12]: 0%; pest or weed control at 250 g/ha [12]: 30% |
| Cc1cccc(NC(=O)[C@H]2C(=O)N(C)C[C@@H]2c2ccc(C(F)(F)F)cc2)n1 (racemic) [Compound 1429] | 0% | 10% | 20% | 0% | 30% | 40% | 0% | 10% | 20% | 0% | 0% | 30% | 10% | 0% | 10% | 0% | 0% | 80% | 0% | 40% | pest or weed control at 250 g/ha [7]: 70%; pest or weed control at 15.625 g/ha [8]: 0%; pest or weed control at 62.5 g/ha [8]: 70%; pest or weed control at 250 g/ha [8]: 80%; pest or weed control at 15.625 g/ha [9]: 0%; pest or weed control at 62.5 g/ha [9]: 0%; pest or weed control at 250 g/ha [9]: 0%; pest or weed control at 15.625 g/ha [10]: 0%; pest or weed control at 62.5 g/ha [10]: 0%; pest or weed control at 250 g/ha [10]: 50%; plant injury at 15.625 g/ha [11]: 0%; plant injury at 62.5 g/ha [11]: 0%; plant injury at 250 g/ha [11]: 0%; pest or weed control at 15.625 g/ha [12]: 0%; pest or weed control at 62.5 g/ha [12]: 0%; pest or weed control at 250 g/ha [12]: 0% |
